Results published in BindingDB's records for doi:10.7270/Q2CF9NKD (Burnham Center For Chemical Genomics, 2010).

Molecular target: Intestinal-type alkaline phosphatase (Homo sapiens, UniProt P09923)
Experiment: human IAP activators, dose response, biochemical, luminescent, uHTS hits, set 2 (AID 488817)

Sequence of Intestinal-type alkaline phosphatase (P09923 whole entry): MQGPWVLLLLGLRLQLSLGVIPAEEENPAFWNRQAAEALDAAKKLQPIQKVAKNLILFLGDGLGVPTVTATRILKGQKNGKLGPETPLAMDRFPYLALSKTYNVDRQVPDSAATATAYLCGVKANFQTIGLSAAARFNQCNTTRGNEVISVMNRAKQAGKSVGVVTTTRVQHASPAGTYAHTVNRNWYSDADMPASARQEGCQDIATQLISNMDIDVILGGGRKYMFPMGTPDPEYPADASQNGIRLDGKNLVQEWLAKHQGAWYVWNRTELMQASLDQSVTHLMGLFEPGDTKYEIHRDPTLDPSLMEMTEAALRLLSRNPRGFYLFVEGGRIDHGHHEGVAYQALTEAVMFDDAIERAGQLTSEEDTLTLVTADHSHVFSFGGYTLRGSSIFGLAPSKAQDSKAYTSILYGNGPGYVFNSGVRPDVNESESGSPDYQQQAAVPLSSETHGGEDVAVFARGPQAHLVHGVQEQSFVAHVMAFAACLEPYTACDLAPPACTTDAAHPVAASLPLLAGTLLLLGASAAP

Compound	EC50
CCOC(=O)c1c(C)[nH]c(C(=O)N/N=C/C2C=C([N+](=O)[O-])C=CC2=O)c1C (stereo not given) [ethyl 2,4-dimethyl-5-[[[(E)-(3-nitro-6-oxocyclohexa-2,4-dien-1-ylidene)methyl]amino]carbamoyl]-1H-pyrrole-3-carboxylate]	11.4 µM
Cc1c(C(=O)NN=Cc2ccc(O)cc2O)[nH][nH]c1=O	11.3 µM
O=Nc1[nH]c(=O)c(CC(=O)c2ccccc2)nc1NO [SMR000539633]	8.77 µM
O=c1c2ccccc2nc(N=NCc2c(O)ccc3ccccc23)n1O [SMR000145705]	31 µM
O=C(Nn1c(O)csc1=S)C(=O)Nn1c(O)csc1=S [SMR000349781]	12.4 µM
Cn1c(C(C#N)C(=O)c2ccc(Br)s2)nc2ccccc21 (stereo not given) [MLS001167394]	60 µM
C=c1[nH]n(-c2nc3ccccc3[nH]2)c(=O)c1=CN(C)C [(4E)-2-(1H-benzimidazol-2-yl)-4-(dimethylaminomethylidene)-5-methyl-pyrazol-3-one]	23.2 µM
Cc1cc(Br)ccc1SCC(=O)OCC(=O)C(C#N)c1nc2ccccc2[nH]1 (stereo not given) [2-[(4-bromo-2-methylphenyl)thio]acetic acid [3-cyano-3-(1,3-dihydrobenzimidazol-2-ylidene)-2-oxopropyl] ester]	27.5 µM
CCc1ccc(CN=Nc2ncnc3nc[nH]c23)cc1 [MLS000419199]	12.5 µM
COc1cccc(C=NNC(=O)c2[nH][nH]c(=O)c2C)c1O [N'-[(E)-(5-methoxy-6-oxidanylidene-cyclohexa-2,4-dien-1-ylidene)methyl]-4-methyl-5-oxidanylidene-1,4-dihydropyrazole-3-carbohydrazide]	9.07 µM
